Laboratory results from patent publication US20150324546A1, “METHOD FOR PREDICTING DRUG-TARGET INTERACTIONS AND USES FOR DRUG REPOSITIONING” (GEORGETOWN UNIVERSITY, priority 2012, published 2015).
pIC50: −log10 of the molar value. Like-named read-outs stand apart in the source and are kept apart here. Values belong to the compound of their own block, whether it stands above or below them.

Assays:
angiogenesis = details: previously demonstrated; cited from earlier work
[1] = system: Human umbilical vein endothelial cells (HUVEC); assay: HUVEC angiogenesis (network formation on Matrigel) assay; format: cell-based; details: 24 h incubation, 1-100 μM, read-out: Inhibition of HUVEC network formation IC50
Protocol: Mebendazole was dissolved in 50 μl of DMSO and diluted with endothelial growth medium (EGM) to a final concentration of 1 mM. The highest concentration of DMSO is 0.1%. Human umbilical vein endothelial cells (HUVEC) were purchased from Cambrex Co. (East Rutherford, N.J., USA) and maintained in endothelial growth medium (EGM) supplemented with 2% FBS, 0.1% EGF, 0.1% hydrocortisone, 0.1% GA-1000, and 0.4% BBE. Morphogenesis assay on Matrigel was performed according to the manufacturer's instructions (Chemicon International). The ECMatrix™ kit consists of laminin, collagen type IV, heparan sulfate, proteoglycans, entactin, and nidogen. It also contains various growth factors (TGF-beta, FGF) and proteolytic enzymes (plasminogen, tPA, and MMPs) that are normally produced in EHS tumors. The incubation condition was optimized for maximal tube-formation as follows: 50 μl of EC Matrix™ was suitably diluted in a ratio 9:1 with 10× diluent buffer and used to coat the 96-well plate. The coated plates were incubated at 37° C. for 1 hr to allow the Matrix solution to solidify. HUVECs were cultured for 24 h in EGM with 2% FBS, trypsinized and re-suspended in the growth medium. […]
The efficiency of Mebendazole to inhibit the VEGFR2 kinase was measured by monitoring the ability of HUVECs to form networks.

VEGFR2 = VEGFR2 (Homo sapiens, UniProt P35968); details: read-out: VEGFR2 kinase activity IC50; 450 uM ATP, 60 minutes at room temperature, duplicate wells
VEGFR2, sequence (P35968 20-1356, species assumed): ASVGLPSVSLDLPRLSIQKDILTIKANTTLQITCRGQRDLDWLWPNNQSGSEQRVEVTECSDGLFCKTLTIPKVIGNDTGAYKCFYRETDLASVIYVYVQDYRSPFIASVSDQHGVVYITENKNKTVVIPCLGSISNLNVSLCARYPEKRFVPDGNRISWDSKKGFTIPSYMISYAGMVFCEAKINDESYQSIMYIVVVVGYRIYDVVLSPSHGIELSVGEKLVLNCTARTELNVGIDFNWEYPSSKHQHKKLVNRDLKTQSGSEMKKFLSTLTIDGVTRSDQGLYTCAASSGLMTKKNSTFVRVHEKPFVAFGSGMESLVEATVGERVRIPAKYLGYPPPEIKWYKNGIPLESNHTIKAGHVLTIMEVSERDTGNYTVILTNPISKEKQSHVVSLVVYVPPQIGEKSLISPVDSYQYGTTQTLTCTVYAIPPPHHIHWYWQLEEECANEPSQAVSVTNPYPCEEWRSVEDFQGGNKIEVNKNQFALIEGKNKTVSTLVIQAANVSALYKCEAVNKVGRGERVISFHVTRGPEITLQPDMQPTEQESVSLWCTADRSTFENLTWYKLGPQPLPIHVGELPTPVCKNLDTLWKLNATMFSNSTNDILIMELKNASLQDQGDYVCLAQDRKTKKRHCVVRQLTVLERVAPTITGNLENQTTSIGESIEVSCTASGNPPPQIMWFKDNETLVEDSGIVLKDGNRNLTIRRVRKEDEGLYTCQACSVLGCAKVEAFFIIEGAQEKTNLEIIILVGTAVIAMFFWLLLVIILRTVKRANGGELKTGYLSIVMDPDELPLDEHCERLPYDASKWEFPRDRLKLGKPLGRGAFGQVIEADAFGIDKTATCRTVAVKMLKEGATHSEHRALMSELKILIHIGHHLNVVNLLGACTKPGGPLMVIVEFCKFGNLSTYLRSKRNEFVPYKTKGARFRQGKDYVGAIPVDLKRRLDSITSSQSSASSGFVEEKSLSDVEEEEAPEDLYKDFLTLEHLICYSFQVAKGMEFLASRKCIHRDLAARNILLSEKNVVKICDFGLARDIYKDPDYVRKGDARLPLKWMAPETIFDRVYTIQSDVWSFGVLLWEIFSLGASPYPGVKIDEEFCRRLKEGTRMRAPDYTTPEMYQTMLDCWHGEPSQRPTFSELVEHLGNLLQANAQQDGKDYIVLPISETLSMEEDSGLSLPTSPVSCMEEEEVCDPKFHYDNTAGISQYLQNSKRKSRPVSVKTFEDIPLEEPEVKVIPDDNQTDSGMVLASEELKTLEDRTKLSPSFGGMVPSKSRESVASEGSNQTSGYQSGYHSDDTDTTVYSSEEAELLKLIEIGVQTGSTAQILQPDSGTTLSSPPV
Protocol: The VEGFR2 kinase assay was performed by using the Caliper LabChip 3000 and a 12-sipper LabChip. […] The off-chip incubation mobility-shift kinase assay uses a microfluidic chip to measure the conversion of a fluorescent peptide substrate to a phosphorylated product. The reaction mixture, from a microtiter well plate, is introduced through a capillary sipper onto the chip, where the nonphosphorylated substrate and phosphorylated product are separated by electrophoresis and detected via laser-induced fluorescence.
The assay reaction is: Fluorescein-peptide+ATP→fluorescein-phosphopeptide+ADP, which is measured by charge separation of phosphorylated product and unphosphorylated substrate. […] Following addition of ATP, samples were incubated for 60 minutes at room temperature and the reaction was terminated by the addition of stop buffer containing 100 mM HEPES (pH 7.5), 7 mM EDTA, 0.015% Brij-35, 4% DMSO. Phosphorylated product and unphosphorylated substrate were separated by charge using electrophoretic mobility shift. The product formed is compared to control wells to determine inhibition or enhancement of enzyme activity.
IC50 curves were generated using GraphPad 5 and a standard 4-parameter non-linear regression model (log [inhibitor] vs response−variable slope). Data points correspond to the averages of duplicate wells, and error bars represent the mean±replicate % activity.

[2] = rats; cited from earlier work
[3] = humans; cited from earlier work
[4] = system: MDA-MB-231 invasive breast cancer cell line; assay: Growth inhibition of MDA-MB-231 cells, MTS assay; format: cell-based; details: Homo sapiens, 48 hrs exposure
Protocol: MDA-MB-231 cells were seeded at 4000 cells/well in a 96 well plate. […] Three wells per concentration were treated 24 h post seeding, and the MTS assay was performed 48 h post treatment. The CellTiter96 Aqueous Non-Radioactive Cell Proliferation Assay kit (Promega) was used according to the manufacturer's recommendations. The absorbance values were measured at 490 nm and viable cells presented as a percentage of the absorbance of DMSO-only treated cells. IC50 and R^2 values were calculated with the Graphpad Prism software.

SMILES: CCCSc1ccc2nc(NC(=O)OC)[nH]c2c1 [Albendazole]
Inhibition of angiogenesis (angiogenesis): inhibit angiogenesis

pIC50 (VEGFR2): 5.44
SMILES: COC(=O)Nc1nc2ccc(C(=O)c3ccccc3)cc2[nH]1 [Mebendazole]
pIC50 [1]: 5.06

SMILES: Cc1ccc(-c2cc(C(F)(F)F)nn2-c2ccc(S(N)(=O)=O)cc2)cc1 [celecoxib]
Circulating levels [2]: 1 to 10 µM
Circulating levels [3]: 1 to 10 µM
pIC50 [4]: 4.40

pIC50 [4]: 4.44
SMILES: Cc1ccc(C)c(-c2cc(C(F)(F)F)nn2-c2ccc(S(N)(=O)=O)cc2)c1 [dimethyl celecoxib]
